Measured values: patent US11524966B1 (Valo Early Discovery, Inc., priority 2017, dated 2022)

target: T1, USP25 (USP25-His6, Boston Biochem E-546) (Homo sapiens, UniProt Q9UHP3); test: Ubiquitin-Rhodamine 110 Assay for USP25 Activity, Example A-2; type: biochemical; conditions: Ubiquitin-Rhodamine 110 assay, Example A-2; read-out: USP25 A-2 IC50 range
T1 construct: His6; purchased Boston Biochem E-546
T1 sequence (Q9UHP3 1-1055): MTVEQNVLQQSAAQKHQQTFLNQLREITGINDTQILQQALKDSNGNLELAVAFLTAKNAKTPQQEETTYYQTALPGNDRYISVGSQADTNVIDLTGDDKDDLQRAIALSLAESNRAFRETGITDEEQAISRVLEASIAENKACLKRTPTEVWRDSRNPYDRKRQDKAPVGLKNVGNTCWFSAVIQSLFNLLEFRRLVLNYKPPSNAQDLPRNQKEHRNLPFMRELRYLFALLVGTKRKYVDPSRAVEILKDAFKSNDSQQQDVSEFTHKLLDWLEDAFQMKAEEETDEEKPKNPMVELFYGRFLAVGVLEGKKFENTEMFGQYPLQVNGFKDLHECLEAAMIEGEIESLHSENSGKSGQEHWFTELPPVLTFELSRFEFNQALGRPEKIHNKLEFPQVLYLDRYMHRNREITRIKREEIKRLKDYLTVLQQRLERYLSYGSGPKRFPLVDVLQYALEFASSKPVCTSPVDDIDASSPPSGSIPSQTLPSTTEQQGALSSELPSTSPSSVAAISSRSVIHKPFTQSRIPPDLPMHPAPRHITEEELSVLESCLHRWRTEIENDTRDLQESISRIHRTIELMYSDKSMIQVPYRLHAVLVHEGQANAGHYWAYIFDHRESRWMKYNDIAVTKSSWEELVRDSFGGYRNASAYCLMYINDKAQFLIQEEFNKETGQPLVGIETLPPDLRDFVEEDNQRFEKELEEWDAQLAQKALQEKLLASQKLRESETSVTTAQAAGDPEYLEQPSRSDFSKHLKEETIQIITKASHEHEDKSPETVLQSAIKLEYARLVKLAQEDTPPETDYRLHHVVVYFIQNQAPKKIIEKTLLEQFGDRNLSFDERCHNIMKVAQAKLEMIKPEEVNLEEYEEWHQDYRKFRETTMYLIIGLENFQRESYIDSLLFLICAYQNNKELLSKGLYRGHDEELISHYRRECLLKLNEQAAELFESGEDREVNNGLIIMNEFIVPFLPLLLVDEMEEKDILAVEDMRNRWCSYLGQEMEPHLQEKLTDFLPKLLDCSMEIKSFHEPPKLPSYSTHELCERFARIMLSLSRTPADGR
Summary of the method: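 Fluorescence (ex 485, em 535 nm) of cleaved ubiquitin-rhodamine 110 (25 nM, below Km) gave IC50 via 4-parameter logistic fit. Reaction: 45 min, room temperature, citric acid stop, after 30 min compound preincubation with 75 pM USP25-His6 in 20 mM Tris pH 8.0, 3 mM BME, 0.03% BGG, 0.01% Triton X-100; top dose 25 μM.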

| SMILES | IC50 [nM] |
| --- | --- |
| Cc1ccc2c(N)c(C(=O)N[C@H]3CCc4nc(N5CCNCC5)ccc4C3)sc2n1 (single isomer, unassigned) [Example 23-7] | 200 to 2000 |
| Cc1ccc2c(N)c(C(=O)N[C@@H]3CCc4nc(N5CCNCC5)ccc4C3)sc2n1 (single isomer, unassigned) [Example 23-8] | > 2000 |
| Cc1ccc2c(N)c(C(=O)N[C@H]3CCc4nc(N5CCN[C@@H](C)C5)ccc4C3)sc2n1 (single isomer, unassigned) [Example 23-15] | 200 to 2000 |
| Cc1ccc2c(N)c(C(=O)N[C@H]3CCc4nc(N5CCN[C@H](C)C5)ccc4C3)sc2n1 (single isomer, unassigned) [Example 23-16] | 200 to 2000 |
| COC[C@@H]1CN(c2ccc3c(n2)CC[C@H](NC(=O)c2sc4nc(C)ccc4c2N)C3)C[C@@H]1N (single isomer, unassigned) [Example 24-1] | > 2000 |
| COC[C@H]1CN(c2ccc3c(n2)CC[C@H](NC(=O)c2sc4nc(C)ccc4c2N)C3)C[C@H]1N (single isomer, unassigned) [Example 24-2] | 200 to 2000 |
| Cc1ccc2c(N)c(C(=O)N[C@H]3CCc4nc(N5CCNCC5)c(F)cc4C3)sc2n1 (single isomer, unassigned) [Example 30-1] | 200 to 2000 |
| Cc1ccc2c(N)c(C(=O)N[C@@H]3CCc4nc(N5CCNCC5)c(F)cc4C3)sc2n1 (single isomer, unassigned) [Example 30-2] | > 2000 |
| Cc1ccc2c(N)c(C(=O)N[C@@H]3Cc4ccc(N5CCNCC5)nc4C4(CC4)C3)sc2n1 (single isomer, unassigned) [Example 31-3, 3-amino-6-methyl-N-[(6′S)-2-(piperazin-1-yl)-6′,7′-dihydro-5′H-spiro[cyclopropane-1,8′-quinoline]-6′-yl]thieno[2,3-b]pyridine-2-carboxamide] | > 2000 |
| Cc1ccc2c(N)c(C(=O)N[C@H]3Cc4ccc(N5CCNCC5)nc4C4(CC4)C3)sc2n1 (single isomer, unassigned) [Example 31-4, 3-amino-6-methyl-N-[(6′R)-2′-(piperazin-1-yl)-6′,7′-dihydro-5′H-spiro[cyclopropane-1,8′-quinoline]-6′-yl]thieno[2,3-b]pyridine-2-carboxamide] | 200 to 2000 |
| Cc1ccc2c(N)c(C(=O)N[C@H]3COc4cc(N5C[C@@H]6CCNC[C@@H]65)ccc4C3)sc2n1 (single isomer, unassigned) [Example 33-3] | 50 to 200 |
| Cc1ccc2c(N)c(C(=O)N[C@H]3COc4cc(N5C[C@H]6CCNC[C@H]65)ccc4C3)sc2n1 (single isomer, unassigned) [Example 33-4] | 200 to 2000 |
| Cc1cnc2c(N)c(C(=O)N[C@H]3COc4cc(N5CC6CCC(C5)N6)c(F)cc4C3)sc2n1 (single isomer, unassigned) [Example 40] | 50 to 200 |
| Cc1cnc2c(N)c(C(=O)N[C@@H]3COc4cc(N5CC6CCC(C5)N6)c(F)cc4C3)sc2n1 (single isomer, unassigned) [Example 41] | > 2000 |
| Cc1nc2sc(C(=O)N[C@H]3CCc4nc(N5CCNCC5)ccc4C3)c(N)c2s1 [Example 23-9] | > 2000 |
| Cc1ccc2c(N)c(C(=O)N[C@H]3CCc4nc(N5CC6CC(C5)N6)ccc4C3)sc2n1 [Example 23-10, 3-amino-N-[(6S)-2-{3,6-diazabicyclo[3.1.1]heptan-3-yl}-5,6,7,8-tetrahydroquinolin-6-yl]-6-methylthieno[2,3-b]pyridine-2-carboxamide] | 200 to 2000 |
| Cc1cnc2c(N)c(C(=O)N[C@H]3CCc4nc(N5CC6CC(C5)N6)ccc4C3)sc2n1 [Example 23-11, 7-amino-N-[(6S)-2-{3,6-diazabicyclo[3.1.1]heptan-3-yl}-5,6,7,8-tetrahydroquinolin-6-yl]-3-methylthieno[2,3-b]pyrazine-6-carboxamide] | 200 to 2000 |
| Cc1ccc2c(N)c(C(=O)N[C@H]3CCc4nc(N5CC6CCC(C5)N6)ccc4C3)sc2n1 [Example 23-12, 3-amino-N-[(6S)-2-{3,8-diazabicyclo[3.2.1]octan-3-yl}-5,6,7,8-tetrahydroquinolin-6-yl]-6-methylthieno[2,3-b]pyridine-2-carboxamide] | 200 to 2000 |
| Cc1cnc2c(N)c(C(=O)N[C@H]3CCc4nc(N5CC6CCC(C5)N6)ccc4C3)sc2n1 [Example 23-13, 7-amino-N-{(6S)-2-{3,8-diazabicyclo[3.2.1]octan-3-yl}-5,6,7,8-tetrahydroquinolin-6-yl]-3-methylthieno[2,3-b]pyrazine-6-carboxamide] | 200 to 2000 |
| Cc1cc(C)c2c(N)c(C(=O)N[C@H]3CCc4nc(N5CCNCC5)ccc4C3)sc2n1 [Example 23-14, 3-amino-4,6-dimethyl-N-[(6S)-2-(piperazin-1-yl)-5,6,7,8-tetrahydroquinolin-6-yl]thieno[2,3-b]pyridine-2-carboxamide] | 200 to 2000 |
| Cc1ccc2c(N)c(C(=O)N[C@H]3CCc4nc(N5CCNCC5)cc(F)c4C3)sc2n1 [Example 23-17, 3-amino-N-[(6S)-4-fluoro-2-(piperazin-1-yl)-5,6,7,8-tetrahydroquinolin-6-yl]-6-methylthieno[2,3-b]pyridine-2-carboxamide] | 200 to 2000 |
| Cc1ccc2c(N)c(C(=O)N[C@H]3CCc4nc(N5CC6CCC(C5)N6)cc(F)c4C3)sc2n1 [Example 23-18, N-((6S)-2-(3,8-diazabicyclo[3.2.1]octan-3-yl)-4-fluoro-5,6,7,8-tetrahydroquinolin-6-yl)-3-amino-6-methylthieno[2,3-b]pyridine-2-carboxamide] | 200 to 2000 |
| Cc1ccc2c(N)c(C(=O)N[C@H]3CCc4nc(N5C[C@@H](N)[C@H](C(F)F)C5)ccc4C3)sc2n1 [Example 25, 3-Amino-N-[(6S)-2-[(3S,4R)-3-amino-4-(difluoromethyl)pyrrolidin-1-yl]-5,6,7,8-tetrahydroquinolin-6-yl]-6-methylthieno[2,3-b]pyridine-2-carboxamide] | 200 to 2000 |
| Cc1ccc2c(N)c(C(=O)N[C@H]3COc4cc(C5(C#N)CCS(=O)(=O)CC5)ccc4C3)sc2n1 [Example 34, 3-amino-N-[(3R)-7-(4-cyano-1,1-dioxo-1λ6-thian-4-yl)-3,4-dihydro-2H-1-benzopyran-3-yl]-6-methylthieno[2,3-b]pyridine-2-carboxamide] | 1 to 50 |
| Cc1ccc2c(N)c(C(=O)N[C@H]3COc4c(F)c(N5CCNCC5)c(F)c(F)c4C3)sc2n1 [Example 35, 3-amino-6-methyl-N-[(3R)-5,6,8-trifluoro-7-(piperazin-1-yl)-3,4-dihydro-2H-1-benzopyran-3-yl]thieno[2,3-b]pyridine-2-carboxamide] | 50 to 200 |
| CCc1cnc2sc(C(=O)N[C@H]3COc4cc(N5CCNCC5)ccc4C3)c(N)c2n1 [Example 36, (R)-7-amino-2-ethyl-N-(7-(piperazin-1-yl)chroman-3-yl)thieno[2,3-b]pyrazine-6-carboxamide] | 200 to 2000 |
| CCc1cnc2sc(C(=O)N[C@@H]3COc4cc(N5CCNCC5)ccc4C3)c(N)c2n1 [Example 37, (S)-7-amino-2-ethyl-N-(7-(piperazin-1-yl)chroman-3-yl)thieno[2,3-b]pyrazine-6-carboxamide] | > 2000 |
| O=C(N[C@H]1COc2cc(N3CCNCC3)ccc2C1)c1cnc2c(ccn2C(F)F)c1 [Example 38, (R)-1-(difluoromethyl)-N-(7-(piperazin-1-yl)chroman-3-yl)-1H-pyrrolo[2,3-b]pyridine-5-carboxamide] | > 2000 |
